In PubChem BioAssay AID256 (DTP/NCI, 2004):
“And” between values parts separate entries of the source, which are not always exact repeats. Equal entries are not always repeated. Toxic doses and inconclusive results are not listed.

Tested on: CD2F1 mice, L1210 leukemia ip, survival T/C
Assay: NCI In Vivo Anticancer Drug Screen. Data for tumor model L1210 Leukemia (intraperitoneal) in CD2F1 (CDF1) mice
Conditions: higher = longer survival
In short: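 Vehicle-treated tumor-bearing mice served as controls (C) for compound-treated mice (T). Reported figure is T divided by C.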

[1] = endpoint: mean survival time, dose: 100.0 mg/kg/injection, schedule: Q01DX009 (ip), vehicle: saline with Tween-80
[2] = endpoint: mean survival time, dose: 200.0 mg/kg/injection, schedule: Q01DX009 (ip), vehicle: saline with Tween-80
[3] = endpoint: mean survival time, dose: 100.0 mg/kg/injection, schedule: Q04DX002 (ip), vehicle: saline with Tween-80
[4] = endpoint: mean survival time, dose: 200.0 mg/kg/injection, schedule: Q04DX002 (ip), vehicle: saline with Tween-80

CN(C)P1(=O)NCC(C(C)(C)C)CO1 (centres undefined)
T/C (endpoint: mean survival time, dose: 15.63 mg/kg/injection, schedule: Q01DX001 (ip), vehicle: water): 97 % of control
T/C (endpoint: mean survival time, dose: 31.25 mg/kg/injection, schedule: Q01DX001 (ip), vehicle: water): 97 % of control
T/C (endpoint: mean survival time, dose: 62.5 mg/kg/injection, schedule: Q01DX001 (ip), vehicle: water): 97 % of control
T/C (endpoint: mean survival time, dose: 125.0 mg/kg/injection, schedule: Q01DX001 (ip), vehicle: water): 97 % of control
T/C (endpoint: mean survival time, dose: 250.0 mg/kg/injection, schedule: Q01DX001 (ip), vehicle: water): 101 % of control

C=CCSc1ncnc2c1c(Br)cn2C1OC(CO)C(O)C1O (centres undefined)
T/C (endpoint: mean survival time, dose: 75.0 mg/kg/injection, schedule: Q01DX001 (ip), vehicle: saline): 101 % of control
T/C (endpoint: mean survival time, dose: 150.0 mg/kg/injection, schedule: Q01DX001 (ip), vehicle: saline): 107 % of control
T/C (endpoint: mean survival time, dose: 300.0 mg/kg/injection, schedule: Q01DX001 (ip), vehicle: saline): 106 % of control

O=C(Nc1ccc(Cl)c(Cl)c1)OCC#CCOC(=O)Nc1ccc(Cl)c(Cl)c1
T/C (endpoint: mean survival time, dose: 100.0 mg/kg/injection, schedule: Q04DX003 (ip), vehicle: saline): 95 % of control
T/C (endpoint: mean survival time, dose: 200.0 mg/kg/injection, schedule: Q04DX003 (ip), vehicle: saline): 95 % of control
T/C (endpoint: mean survival time, dose: 400.0 mg/kg/injection, schedule: Q04DX003 (ip), vehicle: saline): 91 % of control

C=CCC1(C)C(OC(C)=O)/C(=C\c2ccco2)CC2(C)c3cc(OC)ccc3CCC21 (centres undefined)
T/C (endpoint: mean survival time, dose: 100.0 mg/kg/injection, schedule: Q01DX001 (ip), vehicle: saline): 101 % of control
T/C (endpoint: mean survival time, dose: 200.0 mg/kg/injection, schedule: Q01DX001 (ip), vehicle: saline): 96 % of control
T/C (endpoint: mean survival time, dose: 400.0 mg/kg/injection, schedule: Q01DX001 (ip), vehicle: saline): 96 % of control

CC(C)(C)CC(C)(C)c1ccc(OCCOC(=O)c2ccccc2C(=O)O)cc1
T/C (endpoint: mean survival time, dose: 100.0 mg/kg/injection, schedule: Q01DX001 (ip), vehicle: Klucel (hydroxypropylcellulose) (HPC)): 90 % of control

O=[N+]([O-])c1ccc(Cl)c(CCl)c1
T/C [1]: 94 % of control
T/C (endpoint: mean survival time, dose: 100.0 mg/kg/injection, schedule: Q04DX003 (ip), vehicle: saline with Tween-80): 100 % of control
T/C [2]: 93 % of control
T/C (endpoint: mean survival time, dose: 200.0 mg/kg/injection, schedule: Q04DX003 (ip), vehicle: saline with Tween-80): 100 % of control
T/C (endpoint: mean survival time, dose: 400.0 mg/kg/injection, schedule: Q04DX003 (ip), vehicle: saline with Tween-80): 102 % of control

Cc1c(-c2ccc(C3CCCCC3)cc2)nc2ccc(F)cc2c1C(=O)O
T/C (endpoint: median survival time, dose: 12.5 mg/kg/injection, schedule: Q01DX005 (ip), vehicle: Klucel (hydroxypropylcellulose) (HPC)): 109 % of control
T/C (endpoint: median survival time, dose: 12.5 mg/kg/injection, schedule: Q01DX005 (ip), vehicle: sodium bicarbonate): 114 % of control and 104 % of control
T/C (endpoint: median survival time, dose: 25.0 mg/kg/injection, schedule: Q01DX005 (ip), vehicle: Klucel (hydroxypropylcellulose) (HPC)): 110 % of control
T/C (endpoint: median survival time, dose: 25.0 mg/kg/injection, schedule: Q01DX005 (ip), vehicle: sodium bicarbonate): 122 % of control and 108 % of control
T/C (endpoint: median survival time, dose: 50.0 mg/kg/injection, schedule: Q01DX005 (ip), vehicle: sodium bicarbonate): 123 % of control and 124 % of control and 104 % of control
T/C (endpoint: median survival time, dose: 100.0 mg/kg/injection, schedule: Q01DX005 (ip), vehicle: sodium bicarbonate): 120 % of control and 109 % of control
T/C (endpoint: median survival time, dose: 100.0 mg/kg/injection, schedule: Q01DX009 (ip), vehicle: Klucel (hydroxypropylcellulose) (HPC)): 182 % of control
T/C (endpoint: median survival time, dose: 200.0 mg/kg/injection, schedule: Q01DX009 (ip), vehicle: Klucel (hydroxypropylcellulose) (HPC)): 183 % of control
T/C (endpoint: median survival time, dose: 400.0 mg/kg/injection, schedule: Q01DX009 (ip), vehicle: Klucel (hydroxypropylcellulose) (HPC)): 89 % of control

O=c1ccn(C2CC3[O][Sn]([c]4ccccc4)([c]4ccccc4)[O]CC3O2)c(=O)[nH]1 (centres undefined)
T/C (endpoint: mean survival time, dose: 6.25 mg/kg/injection, schedule: Q01DX005 (ip), vehicle: distilled water + Tween-80): 104 % of control
T/C (endpoint: mean survival time, dose: 12.5 mg/kg/injection, schedule: Q01DX005 (ip), vehicle: distilled water + Tween-80): 98 % of control
T/C (endpoint: mean survival time, dose: 25.0 mg/kg/injection, schedule: Q01DX005 (ip), vehicle: distilled water + Tween-80): 108 % of control
T/C (endpoint: mean survival time, dose: 100.0 mg/kg/injection, schedule: Q01DX005 (ip), vehicle: distilled water + Tween-80): 90 % of control

CC1=C(CCC#N)C(=O)C(CCC#N)C(C)(C)C1 (centres undefined)
T/C [3]: 94 % of control
T/C [4]: 89 % of control

N\C([S-])=N/N=C\C(=N/N=C(\N)[S-])C(O)C(O)C(O)CO.[Pd+2] (centres undefined)
T/C (endpoint: mean survival time, dose: 50.0 mg/kg/injection, schedule: Q01DX009 (ip), vehicle: saline with Tween-80): 112 % of control
T/C [1]: 104 % of control
T/C [2]: 89 % of control

O=C(O)C1=CCCC(O)CC1 (centres undefined)
T/C (endpoint: mean survival time, dose: 100.0 mg/kg/injection, schedule: Q01DX001 (ip), vehicle: saline with Tween-80): 95 % of control
T/C [3]: 100 % of control
T/C (endpoint: mean survival time, dose: 200.0 mg/kg/injection, schedule: Q01DX001 (ip), vehicle: saline with Tween-80): 94 % of control
T/C [4]: 96 % of control
T/C (endpoint: mean survival time, dose: 400.0 mg/kg/injection, schedule: Q01DX001 (ip), vehicle: saline with Tween-80): 95 % of control
T/C (endpoint: mean survival time, dose: 400.0 mg/kg/injection, schedule: Q04DX002 (ip), vehicle: saline with Tween-80): 103 % of control
